Source: ChEMBL document CHEMBL3881530, “Compounds and methods for inhibiting NHE-mediated antiport in the treatment of disorders associated with fluid retention or salt overload and gastrointestinal tract disorders” (2013)
Values belong to the compound of their own block, whether it stands above or below them. Active and inactive are the calls of the source. No cut-off for these calls is given here.

What was measured:
[1] = Cmax in Sprague-Dawley rat at 1.3 mg/kg administered via oral gavage measured up to 4 hrs by LC/MS/MS analysis; assay type: ADME, organism-based; design: dose 1.3 mg/kg, route oral; conditions: in vivo
[2] = AUC in Sprague-Dawley rat at 1.3 mg/kg administered via oral gavage measured up to 4 hrs by LC/MS/MS analysis; assay type: ADME, organism-based; design: dose 1.3 mg/kg, time < 4 hr, route oral; conditions: in vivo
[3] = Cmax in Sprague-Dawley rat at 1.6 mg/kg administered via oral gavage measured up to 4 hrs by LC/MS/MS analysis; assay type: ADME, organism-based; design: dose 1.6 mg/kg, route oral; conditions: in vivo
[4] = AUC in Sprague-Dawley rat at 1.6 mg/kg administered via oral gavage measured up to 4 hrs by LC/MS/MS analysis; assay type: ADME, organism-based; design: time < 4 hr, dose 1.6 mg/kg, route oral; conditions: in vivo
[5] = Cmax in Sprague-Dawley rat at 21 mg/kg administered via oral gavage measured up to 4 hrs by LC/MS/MS analysis; assay type: ADME, organism-based; design: dose 21 mg/kg, route oral; conditions: in vivo
[6] = AUC in Sprague-Dawley rat at 21 mg/kg administered via oral gavage measured up to 4 hrs by LC/MS/MS analysis; assay type: ADME, organism-based; design: dose 21 mg/kg, time < 4 hr, route oral; conditions: in vivo
[7] = target: Sodium/hydrogen exchanger 3 (Rattus norvegicus, UniProt P26433); experiment: Inhibition of rat NHE-3
[8] = Cmax in Sprague-Dawley rat at 1.5 mg/kg administered via oral gavage measured up to 4 hrs by LC/MS/MS analysis; assay type: ADME, organism-based; design: dose 1.5 mg/kg, route oral; conditions: in vivo
[9] = AUC in Sprague-Dawley rat at 1.5 mg/kg administered via oral gavage measured up to 4 hrs by LC/MS/MS analysis; assay type: ADME, organism-based; design: time < 4 hr, dose 1.5 mg/kg, route oral; conditions: in vivo
[10] = target: Sodium/hydrogen exchanger 1 (Homo sapiens, UniProt P19634); experiment: Inhibition of NHE-1 (unknown origin)
[11] = target: T1, Sodium/hydrogen exchanger 2 (Oryctolagus cuniculus, UniProt P50482); experiment: Inhibition of rabbit NHE-2
T1 sequence (P50482 whole entry): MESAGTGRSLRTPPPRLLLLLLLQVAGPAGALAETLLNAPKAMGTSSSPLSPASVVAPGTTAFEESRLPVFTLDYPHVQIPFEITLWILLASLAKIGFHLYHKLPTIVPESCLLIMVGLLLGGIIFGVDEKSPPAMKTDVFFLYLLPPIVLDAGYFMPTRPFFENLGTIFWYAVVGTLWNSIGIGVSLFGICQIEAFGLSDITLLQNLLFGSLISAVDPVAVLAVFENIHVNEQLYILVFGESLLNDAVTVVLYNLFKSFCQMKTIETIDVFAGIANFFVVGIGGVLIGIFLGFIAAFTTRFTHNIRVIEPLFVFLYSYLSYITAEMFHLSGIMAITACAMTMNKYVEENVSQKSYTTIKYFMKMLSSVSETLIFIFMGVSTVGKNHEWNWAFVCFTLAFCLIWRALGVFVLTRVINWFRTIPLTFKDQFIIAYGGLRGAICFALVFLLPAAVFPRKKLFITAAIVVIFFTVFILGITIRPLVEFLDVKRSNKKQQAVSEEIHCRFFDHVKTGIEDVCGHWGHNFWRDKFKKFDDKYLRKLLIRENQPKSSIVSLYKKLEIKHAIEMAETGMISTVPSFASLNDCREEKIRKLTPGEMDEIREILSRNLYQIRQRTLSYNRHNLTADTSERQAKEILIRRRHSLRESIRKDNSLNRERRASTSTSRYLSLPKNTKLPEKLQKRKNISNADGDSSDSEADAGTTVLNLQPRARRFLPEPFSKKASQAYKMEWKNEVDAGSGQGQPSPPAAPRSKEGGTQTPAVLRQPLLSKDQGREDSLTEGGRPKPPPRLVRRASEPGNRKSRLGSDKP

[12] = target: T2, Sodium/hydrogen exchanger 3 (Homo sapiens, UniProt P48764); experiment: Inhibition of NHE-3 (unknown origin)
T2 sequence (P48764 whole entry): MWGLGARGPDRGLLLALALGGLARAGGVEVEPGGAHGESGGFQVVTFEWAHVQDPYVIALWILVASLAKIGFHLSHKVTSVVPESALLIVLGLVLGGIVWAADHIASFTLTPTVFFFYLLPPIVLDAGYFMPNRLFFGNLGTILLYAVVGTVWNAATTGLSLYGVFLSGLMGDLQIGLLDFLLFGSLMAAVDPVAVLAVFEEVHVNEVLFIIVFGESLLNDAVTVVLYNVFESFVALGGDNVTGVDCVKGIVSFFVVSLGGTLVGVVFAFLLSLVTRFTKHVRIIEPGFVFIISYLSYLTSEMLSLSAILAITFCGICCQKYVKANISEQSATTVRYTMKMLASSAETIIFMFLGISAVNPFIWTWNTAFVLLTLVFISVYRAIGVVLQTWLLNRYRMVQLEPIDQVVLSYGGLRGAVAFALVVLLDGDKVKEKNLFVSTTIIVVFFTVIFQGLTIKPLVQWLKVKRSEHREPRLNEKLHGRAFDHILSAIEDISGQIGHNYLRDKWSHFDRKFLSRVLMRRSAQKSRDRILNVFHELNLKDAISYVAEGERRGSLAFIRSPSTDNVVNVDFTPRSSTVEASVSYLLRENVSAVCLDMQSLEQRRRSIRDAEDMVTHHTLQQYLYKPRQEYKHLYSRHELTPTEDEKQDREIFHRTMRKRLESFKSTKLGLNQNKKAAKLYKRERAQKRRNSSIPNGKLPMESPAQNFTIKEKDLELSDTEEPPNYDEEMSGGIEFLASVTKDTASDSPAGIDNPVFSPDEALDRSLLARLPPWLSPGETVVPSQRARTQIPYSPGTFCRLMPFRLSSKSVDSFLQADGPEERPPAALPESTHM

[13] = Cmax in Sprague-Dawley rat at 4.6 mg/kg administered via oral gavage measured up to 4 hrs by LC/MS/MS analysis; assay type: ADME, organism-based; design: dose 4.6 mg/kg, route oral; conditions: in vivo
[14] = AUC in Sprague-Dawley rat at 4.6 mg/kg administered via oral gavage measured up to 4 hrs by LC/MS/MS analysis; assay type: ADME, organism-based; design: time < 4 hr, dose 4.6 mg/kg, route oral; conditions: in vivo
[15] = Apparent permeability of the compound from apical to basolateral side at pH 7.4 after 3 hrs by PAMPA; assay type: ADME
[16] = Cmax in Sprague-Dawley rat at 27 mg/kg administered via oral gavage measured up to 4 hrs by LC/MS/MS analysis; assay type: ADME, organism-based; design: dose 27 mg/kg, route oral; conditions: in vivo
[17] = AUC in Sprague-Dawley rat at 27 mg/kg administered via oral gavage measured up to 4 hrs by LC/MS/MS analysis; assay type: ADME, organism-based; design: time < 4 hr, dose 27 mg/kg, route oral; conditions: in vivo
[18] = Cmax in Sprague-Dawley rat at 2.4 mg/kg administered via oral gavage measured up to 4 hrs by LC/MS/MS analysis; assay type: ADME, organism-based; design: dose 2.4 mg/kg, route oral; conditions: in vivo
Rattus norvegicus [19] = experiment: Reduction in fecal stool form in 1% psyllium diet fed Sprague-Dawley rat at 3 mg/kg administered via oral gavage measured after 16 hrs; assay type: functional, organism-based
Rattus norvegicus [20] = experiment: Increase in fecal water content in 1% psyllium diet fed Sprague-Dawley rat at 3 mg/kg administered via oral gavage measured after 16 hrs; assay type: functional, organism-based
Rattus norvegicus [21] = experiment: Decrease in urinary sodium level in 1% psyllium diet fed Sprague-Dawley rat at 3 mg/kg administered via oral gavage measured after 16 hrs by ion chromatographic analysis; assay type: functional, organism-based
Rattus norvegicus [22] = experiment: Antinociceptive activity in Wistar rat assessed as inhibition of partial restraint stress-induced visceral hyperalgesia at 10 mg/kg, po administered 1 hr prior to 45 to 60 mm Hg colorectal distension pressure by measuring number of abdominal contractions monitoring every 5 mins during rectal distension; assay type: functional, organism-based; conditions: Abdominal cavity
Rattus norvegicus [23] = experiment: Increase in fecal sodium level in Sprague-Dawley rat at 3 mg/kg administered via oral gavage measured after 16 hrs by ion chromatographic analysis; assay type: functional, organism-based

Sequence of Sodium/hydrogen exchanger 3 (Rattus norvegicus, UniProt P26433) (P26433 whole entry): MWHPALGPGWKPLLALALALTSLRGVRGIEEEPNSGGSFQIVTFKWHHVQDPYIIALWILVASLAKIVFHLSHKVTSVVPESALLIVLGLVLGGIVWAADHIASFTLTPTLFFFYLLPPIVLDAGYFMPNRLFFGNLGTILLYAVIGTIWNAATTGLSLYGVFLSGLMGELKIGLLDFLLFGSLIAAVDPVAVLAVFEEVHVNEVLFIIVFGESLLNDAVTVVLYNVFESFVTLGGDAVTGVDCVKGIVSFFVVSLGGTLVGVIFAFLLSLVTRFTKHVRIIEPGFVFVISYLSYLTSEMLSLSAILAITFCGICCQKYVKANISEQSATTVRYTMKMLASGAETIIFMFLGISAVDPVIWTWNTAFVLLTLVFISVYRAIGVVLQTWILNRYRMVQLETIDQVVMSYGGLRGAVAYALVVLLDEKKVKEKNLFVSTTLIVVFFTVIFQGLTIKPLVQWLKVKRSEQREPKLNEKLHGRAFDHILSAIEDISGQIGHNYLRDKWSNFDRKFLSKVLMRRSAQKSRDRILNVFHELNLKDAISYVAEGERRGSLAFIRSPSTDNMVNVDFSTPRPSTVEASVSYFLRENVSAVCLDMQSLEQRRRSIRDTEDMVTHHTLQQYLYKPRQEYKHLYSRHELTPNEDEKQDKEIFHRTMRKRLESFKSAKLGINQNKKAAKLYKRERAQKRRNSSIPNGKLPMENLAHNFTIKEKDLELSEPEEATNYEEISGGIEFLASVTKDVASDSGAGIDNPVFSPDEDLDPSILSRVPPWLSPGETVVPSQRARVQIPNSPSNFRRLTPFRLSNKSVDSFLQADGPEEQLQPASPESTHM
Sequence of Sodium/hydrogen exchanger 1 (P19634 whole entry): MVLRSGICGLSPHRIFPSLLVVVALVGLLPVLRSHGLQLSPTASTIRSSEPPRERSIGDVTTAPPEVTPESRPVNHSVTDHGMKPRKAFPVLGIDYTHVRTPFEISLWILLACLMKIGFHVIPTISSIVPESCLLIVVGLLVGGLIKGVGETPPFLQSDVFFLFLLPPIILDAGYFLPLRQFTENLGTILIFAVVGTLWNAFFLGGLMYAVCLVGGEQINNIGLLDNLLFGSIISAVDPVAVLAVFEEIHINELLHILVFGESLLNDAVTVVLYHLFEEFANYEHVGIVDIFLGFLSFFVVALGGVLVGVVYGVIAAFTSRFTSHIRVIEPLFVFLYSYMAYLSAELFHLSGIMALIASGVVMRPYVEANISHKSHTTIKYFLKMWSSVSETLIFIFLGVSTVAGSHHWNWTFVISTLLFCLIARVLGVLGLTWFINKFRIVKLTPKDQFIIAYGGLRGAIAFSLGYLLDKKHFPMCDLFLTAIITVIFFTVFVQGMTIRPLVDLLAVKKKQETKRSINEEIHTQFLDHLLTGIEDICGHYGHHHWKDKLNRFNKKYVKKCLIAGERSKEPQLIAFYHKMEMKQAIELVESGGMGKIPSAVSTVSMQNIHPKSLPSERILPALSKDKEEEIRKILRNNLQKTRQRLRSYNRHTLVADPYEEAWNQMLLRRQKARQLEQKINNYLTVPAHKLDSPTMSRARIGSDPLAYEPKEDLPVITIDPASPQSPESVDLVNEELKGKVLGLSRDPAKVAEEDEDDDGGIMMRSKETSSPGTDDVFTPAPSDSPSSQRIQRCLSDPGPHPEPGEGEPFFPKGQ

Compound: CN1Cc2c(Cl)cc(Cl)cc2C(c2cccc(NS(=O)(=O)NCCP(=O)(O)O)c2)C1 (stereo not drawn)
Cmax [1]: 11 ng/mL
AUC at 4 h [2]: 56 ng·h/mL

Compound: CN1Cc2c(Cl)cc(Cl)cc2C(c2cccc(S(=O)(=O)NCCN(CCNS(=O)(=O)c3cccc(C4CN(C)Cc5c(Cl)cc(Cl)cc54)c3)CCNS(=O)(=O)c3cccc(C4CN(C)Cc5c(Cl)cc(Cl)cc54)c3)c2)C1 (stereo not drawn)
Cmax [3]: 71 ng/mL
AUC at 4 h [4]: 159 ng·h/mL

Compound: CN1Cc2c(Cl)cc(Cl)cc2C(c2cccc(S(=O)(=O)NCCOCCOCCOCCNC(=O)Nc3ccc(NC(=O)NCCOCCOCCOCCNS(=O)(=O)c4cccc([C@@H]5CN(C)Cc6c(Cl)cc(Cl)cc65)c4)cc3)c2)C1 (mixture of isomers)
Cmax [5]: < 2 ng/mL
AUC at 4 h [6]: < 2 ng·h/mL

Compound: C/C(=C\c1cc(F)c(Oc2ccc(S(=O)(=O)NCCOCCOCCOCCNC(=O)[C@H](O)[C@@H](O)C(=O)NCCOCCOCCOCCNS(=O)(=O)c3ccc(Oc4c(F)cc(/C=C(\C)C(=O)N=C(N)N)cc4F)cc3)cc2)c(F)c1)C(=O)N=C(N)N
Cmax [8]: < 2.7 ng/mL
AUC at 4 h [9]: < 4.4 ng·h/mL

Compound: C/C(=C\c1cc(C)ccc1/C=C(\C)C(=O)NC(=N)N)C(=O)N=C(N)N
IC50 [10]: 3.6 µM
IC50 [11]: 80 µM
IC50 [12]: 0.02 µM

Compound: CN1Cc2c(Cl)cc(Cl)cc2[C@H](c2ccc(S(=O)(=O)NCCOCCOCCOCCNC(=O)C(O)C(O)C(=O)NCCOCCOCCOCCNS(=O)(=O)c3ccc([C@@H]4CN(C)Cc5c(Cl)cc(Cl)cc54)cc3)cc2)C1 (single isomer, unassigned)
Cmax [16]: < 3.5 ng/mL
AUC at 4 h [17]: < 5.3 ng·h/mL

Compound: CN1Cc2c(Cl)cc(Cl)cc2C(c2cccc(S(=O)(=O)NCCOCCOCCOCCNC(=O)C(O)C(O)C(=O)NCCOCCOCCOCCNS(=O)(=O)c3cccc(C4CN(C)Cc5c(Cl)cc(Cl)cc54)c3)c2)C1 (single isomer, unassigned)
Activity (Rattus norvegicus [19]): Active
Activity (Rattus norvegicus [20]): Active
Activity (Rattus norvegicus [21]): Active
inhibition (Rattus norvegicus [22]): Active
Activity (Rattus norvegicus [23]): Active

Next, values leading:

IC50 [7]: > 500 µM
Compound: N=C(N)NC(=O)c1cnn(-c2cccc3ncccc23)c1C1CC1 [ZONIPORIDE]

Cmax [13]: 14 ng/mL
AUC at 4 h [14]: 9 ng·h/mL
Compound: C/C(=C\c1cc(F)c(Oc2ccc(S(=O)(=O)NCc3ccc(CP(=O)(O)O)cc3)cc2)c(F)c1)C(=O)N=C(N)N

Papp at 3 h [15]: 0.4 ×10⁻⁶ cm/s
Compound: NC(N)=Nc1nc(-c2cccc(N3CCN(CCCC(=O)O)CC3)c2)c2cc(Cl)ccc2n1.O=C(O)C(F)(F)F

Cmax [18]: 2 ng/mL
Compound: N=C(N)N1CCN(c2cccc(-c3nc(N=C(N)N)nc4ccc(Cl)cc34)c2)CC1
